Key:
[1] = tested on: primary dopaminergic tyrosine hydroxylase (TH)-positive neurons; experiment: Neurite outgrowth in primary dopaminergic TH-positive neurons; type: cell-based, rat; conditions: 72 h; compounds 0.1 μM, SP600125 10 μM, dbcAMP 1 mM (FIG. 14)
Description: Primary mesencephalic cultures were prepared from rat E14 embryos. Ventral mesencephalon was carefully dissected and dissociated. Cells were then plated in DMEM F12 medium containing 10% heat inactivated horse serum at the density of 100,000 cells/well (96-well plate), with or without the JNK-specific inhibitor SP600125 (10 μM) (which served as a negative control) or dbcAMP (1 mM) (which served as a positive control), or the compounds tested each at the doses of 0.1 μM.
72 h after plating, the effects on the neurite outgrowth of dopaminergic tyrosine hydroxylase (TH)-positive neurons were measured from images acquired by automated confocal microscopy (X4 objective, montage 4×4) and covering the entire well surface, and quantified using the Neurite outgrowth module of Metamorph® software. Several representative parameters of neurite outgrowth were thus generated: total and mean outgrowth, total and mean number of processes per cell, and total and percentage of cells with extensive outgrowth (defined as outgrowth longer than 20 μm) were analyzed. All experiments were performed in quadruplicate.

[2] = tested on: PC-12 cells; experiment: Neurite outgrowth in NGF-differentiated PC-12 cells; type: cell-based, rat; conditions: 0.5 μM
Description: The ellagitannins and their metabolites tested in the assays were synthesized or purchased from suppliers which included Funakoshi, Sigma, and Chemos. Stock solutions were aliquoted and stored at −20° C.
PC-12 cells (ATCC CRL-1721) were cultured at 37° C., 5% CO2 in poly L-lysine-coated culture flasks in complete culture medium (RPMI 1640+10% heat-inactivated horse serum+5% fetal bovine serum).
Cell differentiation was performed in culture flasks 24 h after plating, in complete medium supplemented with 100 ng/mL NGF (2.5 S NGF, Invitrogen). The NGF-supplemented medium was renewed every third day, and differentiation was induced over an 8-day period.
All compounds to be tested were prepared just before the experiment as a 50 mM stock solution in dimethylsulfoxide (DMSO). The final DMSO concentration was 0.1% in the medium of all experimental groups.
For neurite outgrowth measurements, differentiated cells were washed with phosphate-buffered saline (PBS), collected after detachment and replated at a density of 5,000 cells/well (biocoat imaging 96 well plate) in complete medium supplemented with 100 ng/mL NGF, with or without 10 μM SP600125 (negative control), 1 mM dbcAMP (positive control), or tested compound at 5×10^−7 M. In the undifferentiated control group, no NGF was added after replating.
After 72 h in culture, PC-12 cells were washed with PBS and fixed in 1% paraformaldehyde solution for 20 minutes. After 3 washes with PBS, immunofluorescence labeling was performed with Texas Red Maleimide probe, which reacts with thiol groups of cysteine residues of proteins, permitting the visualization of the entire cell morphology, including neurites.
Immunofluorescence analysis was performed in automated confocal microscopy. Images were acquired with a BD pathway 855 system, under X20 objective with 8×8 field montage. Neurite outgrowth was then measured from acquired images with the neurite module of Metamorph® software. Total and mean outgrowth, total and mean number of processes per cell, and total and percentage of cells with extensive outgrowth (defined as outgrowth longer than 20 μm) were analyzed.

Row | SMILES | increase in branching [1] [%] | percent of cells showing significant outgrowth (>20 μm), increase vs differentiated cells ([2]; 72 h (FIG. 8)) [%] | number of processes (in words) ([2]; 72 h, differentiated PC-12 cells)
1 | Oc1c2ccccc2c2c3c(cccc13)N=N2 [SP600125] | 60 | – | –
2 | O=C1OC[C@H]2OC(O)[C@H](O)[C@@H](O)[C@@H]2OC(=O)c2cc(O)c(O)c(O)c2-c2c(O)c(O)c3oc(=O)c4c(c(O)c(O)c5oc(=O)c2c3c54)-c2c1cc(O)c(O)c2O (mixture of isomers) [punicalin] | – | 26 | induced an increase in the number of processes
3 | CCCC(=O)Nc1ncnc2c1ncn2[C@@H]1O[C@@H]2COP(=O)(O)O[C@H]2[C@H]1OC(=O)CCC [dbcAMP, dibutyryl cyclic AMP] | 86 | – | –
